# Article PMC5317004 (Scientific Reports, 2017)
# Tested on: chimeric α7-GluClβR
# Assay: Voltage ramps during current decline: reversal potential, chloride chord conductance, IVM rate constants
# Type: cell-based, chick nAChR α7 / C. elegans GluClβ
# Description: Figure 6 Chloride conductance of α7-GluClβRs. Representative whole-cell current traces elicited by: (A) ACh alone and (B) ACh to which IVM was added after the current peak. Recordings were performed at −60 mV with intervening 200-ms-long voltage ramps applied from −80 to +20 mV during the current decline, giving output currents r1–r13. *, time lapse of ~1 sec between protocols’ exchange (see “Supplementary Materials and Methods”). Traces in A and B were recorded from the same cell, with an intermediate 74-sec-long wash. Right panels show superimposition of the output currents. (C,D) Current-voltage (I/V) relations extracted from A and B, respectively (r13 in D overlaps the x-axis). (E) Reversal potentials (Erev) extracted from the voltage-ramps’ output currents of A (black squares) and B (red circles), plotted as a function of time (0 sec, time of r1). (F) Decay of chloride chord conductance plotted as a function of time, in the absence or presence of IVM. The conductance points were calculated at −65 mV based on the voltage-ramps’ output currents shown in A and B. Exponential fits (Eq. 6) are shown. (G,H) Normalized (Norm.) conductance (G), current (I), intracellular Cl^− ion concentration ([Cl]i), and electrochemical driving force (VDF) plotted as a function of time for ACh-dependent responses in the absence (panel G) or presence (panel H) of IVM (relating to responses in A and B, respectively). (I,J) Decay of chloride chord conductance plotted as a function of time in representative cells exposed to different IVM concentrations. (K,L,M) Averaged normalized chloride chord conductance (Norm. G) plotted as a function of time under different IVM concentrations. In each cell, each conductance was normalized to the conductance extracted from r1 of the ACh-alone application. N = 7, 11 and 8 in K, L and M, respectively. Error bars are SEM. (N) 1/τIVM plotted as a function of IVM concentration, using equation 7 for curve fitting by linear regression (r^2 = 0.999). 26 cells were analyzed to obtain the averaged 1/τIVM points. Error bars are SEM.
# We then took advantage of the capability of IVM to accelerate the current decline in order to determine the binding affinity of IVM. To this end, the voltage ramps’ output currents obtained in the presence of IVM were subtracted from their counterpart currents obtained in the absence of IVM. Then, we calculated the chloride conductance based on the resulting subtracted currents at each ramp. This chloride conductance is hereafter termed GIVM. In each experimented cell, we fitted exponential curves to the first 5-6 conductance points, where there was no substantial difference between the ∆Erev values in the absence or presence of IVM. These exponential fits for the GIVM points were obtained at various IVM concentrations, and they actually provide the time constant of the IVM-dependent Cl^−-conductance decay (τIVM).
# Chord conductance (G) was calculated by using equation 5 as follows: […]
# The relationship between the conductance values and time was plotted for each cell, and the time constant of conductance decay was determined by fitting an exponential curve to the data points using equation 6 as follows: […]
# To calculate the IVM association (kf) and dissociation (kb) rate constants, a curve was fitted to the 1/τIVM values by a linear regression using equation 7 as follows: where τIVM is the time constant of the IVM-dependent Cl^−-conductance decay, and [IVM] is the concentration of IVM. […]
smiles,measurement,setting,value
"CC[C@H](C)[C@H]1O[C@]2(CC[C@@H]1C)C[C@@H]1C[C@@H](C/C=C(\C)[C@@H](O[C@H]3C[C@H](OC)[C@@H](O[C@H]4C[C@H](OC)[C@@H](O)[C@H](C)O4)[C@H](C)O3)[C@@H](C)/C=C/C=C3\CO[C@@H]4[C@H](O)C(C)=C[C@@H](C(=O)O1)[C@]34O)O2 [IVM, Ivermectin]",IVM-dependent decrease in the chloride conductance,"0.5 μM IVM, 740 milliseconds after application, 30 μM ACh",20 ± 2%
same,leftward shift in reversal potential (∆Erev),"30 μM ACh plus 4 μM IVM added after the peak, representative cell",11 mV
same,Kd,"IVM applied after activation by ACh, read-out: Kd (kb/kf) for IVM binding to activated receptor",1400 nM
same,Kd (after activation) relative to IC50/Ki (prior to activation),Kd […] vs 156 nM,nine times higher
same,"IVM association rate constant (k forward, kf)","slope of 1/τIVM vs IVM concentration, 30 μM ACh, 26 cells",290800 M^−1⋅s^−1
